Results from ChEMBL document CHEMBL1139782, “Dual acting antioxidant A1 adenosine receptor agonists” (Bioorg Med Chem Lett, 2007).
Calls of active or inactive are those of the source. No cut-off for these calls is given here.

What was measured:
[1] = biological target: T1, Adenosine receptor A1 (Homo sapiens, UniProt P30542); experiment: Binding affinity to adenosine A1 receptor
T1 sequence (P30542 whole entry): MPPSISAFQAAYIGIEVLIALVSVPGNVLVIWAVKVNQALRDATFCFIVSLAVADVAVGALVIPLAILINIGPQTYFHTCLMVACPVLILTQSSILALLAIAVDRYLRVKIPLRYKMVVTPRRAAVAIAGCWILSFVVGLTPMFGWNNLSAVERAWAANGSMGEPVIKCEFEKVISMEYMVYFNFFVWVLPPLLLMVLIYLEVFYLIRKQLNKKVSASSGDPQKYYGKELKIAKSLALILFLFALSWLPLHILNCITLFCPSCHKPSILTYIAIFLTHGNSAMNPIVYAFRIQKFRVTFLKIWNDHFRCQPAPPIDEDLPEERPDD

[2] = biological target: Adenosine receptor A2a (Homo sapiens, UniProt P29274); experiment: Binding affinity to adenosine A2A receptor
Adenosine receptor A2a, sequence (P29274 whole entry): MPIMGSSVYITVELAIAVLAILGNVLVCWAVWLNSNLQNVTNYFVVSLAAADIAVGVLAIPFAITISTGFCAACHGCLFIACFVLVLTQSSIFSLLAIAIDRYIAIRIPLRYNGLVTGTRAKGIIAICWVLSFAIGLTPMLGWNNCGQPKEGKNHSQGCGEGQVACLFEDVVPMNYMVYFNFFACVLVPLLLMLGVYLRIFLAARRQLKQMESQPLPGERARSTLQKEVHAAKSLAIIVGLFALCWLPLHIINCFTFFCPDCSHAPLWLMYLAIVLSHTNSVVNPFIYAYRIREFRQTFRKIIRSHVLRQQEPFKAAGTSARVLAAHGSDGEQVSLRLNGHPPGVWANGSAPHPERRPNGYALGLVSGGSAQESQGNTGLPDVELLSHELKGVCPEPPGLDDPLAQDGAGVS

[3] = biological target: T2, Adenosine receptor A2b (Homo sapiens, UniProt P29275); experiment: Binding affinity to adenosine A2B receptor
T2 sequence (P29275 whole entry): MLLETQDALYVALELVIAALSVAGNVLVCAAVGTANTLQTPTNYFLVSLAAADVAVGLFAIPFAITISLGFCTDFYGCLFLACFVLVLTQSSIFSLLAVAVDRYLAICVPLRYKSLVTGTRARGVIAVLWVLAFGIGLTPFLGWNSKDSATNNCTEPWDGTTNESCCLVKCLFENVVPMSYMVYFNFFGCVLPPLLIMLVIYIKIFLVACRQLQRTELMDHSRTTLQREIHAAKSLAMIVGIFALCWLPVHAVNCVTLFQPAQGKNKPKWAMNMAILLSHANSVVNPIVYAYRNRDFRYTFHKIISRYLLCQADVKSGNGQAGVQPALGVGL

[4] = biological target: T3, Adenosine receptor A3 (Homo sapiens, UniProt P0DMS8); experiment: Binding affinity to adenosine A3 receptor
T3 sequence (P0DMS8 whole entry): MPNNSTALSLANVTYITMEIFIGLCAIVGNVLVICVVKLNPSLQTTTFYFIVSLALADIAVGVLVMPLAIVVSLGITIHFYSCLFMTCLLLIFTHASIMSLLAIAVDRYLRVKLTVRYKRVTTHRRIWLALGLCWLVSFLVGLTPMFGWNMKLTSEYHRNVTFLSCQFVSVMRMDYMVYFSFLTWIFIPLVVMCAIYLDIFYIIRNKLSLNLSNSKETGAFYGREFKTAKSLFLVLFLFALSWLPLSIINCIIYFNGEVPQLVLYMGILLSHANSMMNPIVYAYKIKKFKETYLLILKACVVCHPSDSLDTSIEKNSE

[5] = biological target: T4, Adenosine receptor A1 (Rattus norvegicus) (UniProt P25099); experiment: Agonist activity at adenosine A1 receptor in embryonic rat H9C2 cell model of ischemia assessed as reduction of cell death at 10 nM; format: functional, cell-based; design: scale not given: the % may be the effect or the level left
T4 sequence (whole entry): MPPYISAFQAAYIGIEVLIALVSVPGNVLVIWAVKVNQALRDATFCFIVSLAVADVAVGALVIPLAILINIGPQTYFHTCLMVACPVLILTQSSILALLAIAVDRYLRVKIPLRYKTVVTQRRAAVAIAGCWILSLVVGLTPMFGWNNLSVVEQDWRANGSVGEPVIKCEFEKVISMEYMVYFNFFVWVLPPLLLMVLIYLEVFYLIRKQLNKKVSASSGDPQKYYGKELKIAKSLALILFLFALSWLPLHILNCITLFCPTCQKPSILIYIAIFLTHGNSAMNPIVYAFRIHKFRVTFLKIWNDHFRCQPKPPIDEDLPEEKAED

[6] = biological target: T4, Adenosine receptor A1 (Rattus norvegicus); experiment: Reversal of agonistic activity at adenosine A1 receptor in embryonic rat H9C2 cell model of ischemia assessed as reduction of cardioprotective effect in presence of DPCPX A1 antagonist; format: functional, tissue-based; conditions: Heart
[7] = biological target: Adenosine receptors; A1 & A3 (Homo sapiens) (UniProt P30542+P0DMS8); experiment: Selectivity for adenosine A1 receptor over adenosine A3 receptor

SMILES	Ki [1]	Ki [2]	Ki [3]	Ki [4]	Activity [5]	Activity [6]	Ratio Ki [7]
CC1(C)c2ccc(Nc3ncnc4c3ncn4[C@@H]3O[C@H](CO)[C@@H](O)[C@H]3O)cc2C(C)(C)N1[O]	100 nM	> 10000 nM	> 10000 nM	790 nM			
CC1(C)CC(CNc2ncnc3c2ncn3[C@@H]2O[C@H](CO)[C@@H](O)[C@H]2O)C(C)(C)N1[O] (stereo not given in full)	50 nM	> 10000 nM	> 10000 nM	21200 nM	84.8%	Active	
OC[C@H]1O[C@@H](n2cnc3c(NC4CCCC4)ncnc32)[C@H](O)[C@@H]1O					86.2%	Active	
CC1(C)c2ccc(C(=O)NCCc3ccc(Nc4ncnc5c4ncn5[C@@H]4O[C@H](CO)[C@@H](O)[C@H]4O)cc3)cc2C(C)(C)N1[O]	7 nM	> 10000 nM	1450 nM	230 nM	54.7%	Active	3
CC(C)(C)c1cc(C(=O)NCCc2ccc(Nc3ncnc4c3ncn4[C@@H]3O[C@H](CO)[C@@H](O)[C@H]3O)cc2)cc(C(C)(C)C)c1O	32 nM	> 10000 nM	8580 nM	84 nM	73.2%	Active	
CC1(C)c2ccc(C(=O)NCCCCCCNc3ncnc4c3ncn4[C@@H]3O[C@H](CO)[C@@H](O)[C@H]3O)cc2C(C)(C)N1[O]	15 nM	> 10000 nM	> 10000 nM	89 nM			
CC1(C)CC(Nc2ncnc3c2ncn3[C@@H]2O[C@H](CO)[C@@H](O)[C@H]2O)CC(C)(C)N1[O]	50 nM	> 10000 nM	> 10000 nM	8560 nM			
CC1(C)CC(Nc2ncnc3c2ncn3[C@@H]2O[C@H](CO)[C@@H](O)[C@H]2O)CC(C)(C)N1	1580 nM	> 10000 nM	> 10000 nM	25000 nM			
CC1(C)NC(C)(C)c2cc(Nc3ncnc4c3ncn4[C@@H]3O[C@H](CO)[C@@H](O)[C@H]3O)ccc21	290 nM	> 10000 nM	> 10000 nM	280 nM			
CC(C)(C)c1cc(C(=O)NCCCCCCNc2ncnc3c2ncn3[C@@H]2O[C@H](CO)[C@@H](O)[C@H]2O)cc(C(C)(C)C)c1O	40 nM	> 10000 nM	> 10000 nM	14 nM			
